One assay has as its system RAW 264 cells. Kind of assay: Growth/proliferation of RAW 264 cells in vitro. Particulars: FIG. 6; 48 hours after treatment; proliferation in buffer = 100%. In kind it is cell-based, murine. Here is the method:
The effect of ISA on the growth of RAW 264 cells was determined. RAW 264 cells, which are derived from the murine macrophage cell lines, were plated at 2×10^4 cells per well in 24-well plates and allowed to grow for approximately 24 hours in DMEM. The cells were then treated with various compositions of the ISA drug, specifically, free ISA, the ISA−Ca^+2 salt, and ISA encapsulated in a nanoparticle (“ISA NP”). As discussed supra, the ISA NP contains Ca^+2 to lower the solubility of the bisphosphonate and increase its entrapment efficiency. For comparison purposes, the RAW 264 cells were also treated with blank NP, i.e., nanoparticles with no drug embedded therein. The cells were then analyzed 48 hours after treatment. Analysis included cell counting by Coulter counter and cell viability by tryphan blue exclusion assay.
The effect of ISA compositions on the growth of RAW 264 cells in vitro is illustrated in FIG. 6. The cell proliferation in buffer only was termed as 100%. The data represented is the mean with a ±SD (6≦N≦27).
The following formulations were evaluated: Ca^+2-ISA salt, Ca^+2-ISA salt+PVA, and Ca^+2-ISA adsorbed on the surface of a blank NP. The cell proliferation in the buffer only was termed as 100%. N.B., a lower column represents higher potency.

The test system of assay [1] is neointimal formation in balloon-injured rat carotid artery. Kind of assay: Rat carotid catheter (balloon) injury model of restenosis. Particulars: Example 2; 1.5 and 15 mg/kg day -1 and/or day +6; 14 days post injury; FIG. 4. It is filed as in vivo. Here is the method:
Animals were obtained and housed in the animal facilities of the Faculty of Medicine, The Hebrew University of Jerusalem, conforming to the standards for care and use of laboratory animals of the Hebrew University of Jerusalem. Male rats of Sabra strain weighing 350-420 g were used. The animals were fed standard laboratory chow and tap water ad libitum. All in vivo experiments were conducted under general anaesthesia achieved with 80 mg/kg ketamine and 5 mg/kg xylazine administered IP.
The distal left common and external carotid arteries were exposed through a midline incision in the neck. […]
The slides were examined microscopically by an investigator blinded to the type of the experimental group. Six to eight sections in each slide were evaluated by computerized morphometric analysis and the averaged section data were further used as a representative of a whole slide for comparisons between groups. The residual lumen, the area bounded by the internal elastic lamina (original lumen), and the area circumscribed by the external elastic lamina (“total arterial area”) were measured directly. The degree of neointimal thickening was expressed as the ratio between the area of the neointimal and the original lumen (% stenosis), and as the ratio between the neointimal area to the area of the media (N/M). […]

Take `Nc1nccc[n+]1CC(P(=O)([O-])O)P(=O)(O)O` (centres unmarked) [free ISA, 2-(2-aminopyrimidinio) ethylidene-1,1-bisphosphonic acid betaine]: in the assay on RAW 264 cells, the “growth of RAW 264 cells” value was “only a minor effect”.

In the case of `O=P(O)(O)C(Cl)(Cl)P(=O)(O)O` [free clodronate in solution, (dichloromethylene) diphosphonic acid], the mean neointimal formation entry in assay [1] was “marked neointimal formation”.

(Values after patent publication US6984400B2, “Method of treating restenosis using bisphosphonate nanoparticles” (Yissum Research Development Company of the Hebrew …, priority 1998, dated 2006).)
